# Results published in patent US8729103B2, “Silent desensitizers of neuronal nAChR and methods of use thereof” (priority 2008, dated 2014).
# Tests used:
# [1] = in vivo; cited from earlier work
# [2] = stability of the isolated HCl salt on exposure to air; assay type: physicochemical; conditions: white solid, larger scale
# Source text: A gram-scale synthesis of sazetidine A is outlined in FIG. 1a. The Boc-protected azidityl methyl alcohol 2 and 3-bromo-5-hydroxy pyridine (3) are both commercially available. Treatment with PPh3 and DEAD according to the Mitsunobu protocol formed ether derivative 4 in 70% yield. Palladium-mediated coupling of the bromo-substituted pyridine 4 with 5-hexyn-1-ol under modified Sonogashira conditions furnished Boc-protected sazetidine A in 73% yield. Deprotection of the Boc-group with HCl was expected to give sazetidine A in salt form as published in the literature.
# [3] = molecular target: T1, α4β2 nAChRs (Homo sapiens, UniProt P17787+P43681); conditions: added alone; cited from earlier work
# T1 construct: expressed in transfected cells; host or cells: SH-EP1 (SH-EP1-pcDNA-hα4β2)
# [4] = molecular target: T2, α4β2 nAChRs (Rattus norvegicus, UniProt P09483+P12390); assay: [3H]epibatidine competition binding, α4β2 nAChR; conditions: triazole in place of alkyne
# T2 construct: expressed in transfected cells; host or cells: HEK293 (KXα4β2)
# Method: The cell lines KXα3β4R2, expressing rat α3β4 nAChRs, and KXα4β2, expressing rat α4β2 nAChRs, were established previously by stably transfecting human embryonic kidney 293 cells with combinations of rat nAChR subunit genes. These cell lines are maintained in minimum essential medium supplemented with 10% fetal bovine serum, 100 units/mL penicillin G, […] streptomycin, and 0.7 mg/mL G418 (Geneticin) at 37° C. with 5% CO2 in a humidified incubator. The cell line SH-EP1-pcDNA-hα4β2, expressing human α4β2 nAChRs, was described previously and are available. […]
# The Ki values of compounds for binding to α3β4, α4β2 and other nAChR sub-types will be measured by competition experiments with [3H]epibatidine or other labeled ligands. […]
# In brief, cultured cells at above about 80% confluence will be removed from their flasks (80 cm^2) with a disposable cell scraper and will be placed in 10 mL of 50 mM Tris-HCl buffer, pH 7.4, 4° C. […] Nonspecific binding will be assessed in parallel incubations in the presence of 300 μM nicotine. […] The filter-retained radioactivity will be measured by liquid scintillation counting. […] Data from saturation and competition binding assays will be analyzed using Prism 4 (GraphPad Software, San Diego, Calif.).
compound,measurement,setting,value
Clc1ccc(C2CC3CCC2N3)cn1 (stereo not shown) [Epibatidine],analgesic potency relative to morphine,[1],~200 times
OCCCCC#Cc1cncc(OCC2CCN2)c1 (stereo not shown) [sazetidine A],stability of the HCl salt on exposure to air,[2],immediately resulted in decomposition
same,agonist activity at α4β2 nAChRs,[3],only low agonist activity
OCCCCc1cn(-c2cncc(OCC3CCN3)c2)nn1 (stereo not shown) [triazetidine O],decrease in Ki relative to sazetidine A,[4],approximately 10 fold
